Assays:
[1] = test system: Bladder carcinoma 5637 cells; experiment: Cytotoxicity counterscreen, CellTiter Glo, 72 hr; assay type: cell-based, human
Procedure: B. Counterscreen: Cytotoxicity Screening for Potential Inhibitors of Bacterial Capsule Biogenesis.
Purpose: This cell-based assay measures the cytotoxicity of compounds in bladder carcinoma 5637 cells using luminescent cell viability assay readout.
Cytotoxicity assay: The cytotoxicity assay was performed as described in Section 6: Appendix. Hit cytotoxicity and the 50% toxic concentration (CC50) was determined and compared to the IC50 to calculate the selectivity index.
Assay Description: Cytotoxicity: Dose response testing (dose range=300-0.58 μM) established the hit cytotoxicity data. Compounds were plated in 384-well microplates in a stacked dose response format using the same doses used in the efficacy dose response. Bladder carcinoma 5637 cells were added to the compounds, and 72 hr later cell viability was measured using CellTiter Glo (38). Hit cytotoxicity and the 50% toxic concentration (TC50) was determined and compared to the IC50 to calculate the therapeutic index. Test compounds are serially diluted in a plate to plate matrix or stacked plate matrix. All 320 compounds in a source plate are diluted together resulting in a 10 point dose response dilution series. It is visualized as a serial dilution series proceeding vertically through a stack of plates with the high dose plate on top and the low dose plate on the bottom.
Control Drug: Hyamine was used as a positive cytotoxic control. All wells contained 0.5% DMSO.
Preparation of Bladder carcinoma 5637 cells: Cells are harvested and resuspended to 80,000 cells per ml in Complete DMEM/F12®.
Endpoint Read: Following the three day incubation period, the assay plates were equilibrated to room temperature for 30 min and an equal volume (30 μL) of Cell Titer-Glo® reagent (Promega Inc.) is added to each well using a WellMate™ (Matrix, Hudson, N.H.) and plates are incubated for an additional 10 min at room temperature. At the end of the incubation, luminescence is measured using a Perkin Elmer Envision™ multi-label reader (PerkinElmer, Wellesley, Mass.) with an integration time of 0.1 s.
Cytotoxicity. Testing was performed essentially as previously described. Concentration-response testing was performed over a range 0.58-300 μM in a […] well plate format. Bladder carcinoma 5637 cells (ATCC HTB-9) were added to the compounds, and 72 hrs later cell viability was measured using CellTiter Glo (Promega). The 50% toxic concentration (TC50) was determined and compared to the IC50 to calculate the therapeutic index. Hyamine was used as a positive cytotoxic control. All wells contained 0.5% DMSO.

E. coli K1 strain UTI89 [2] = experiment: Secondary assay 2: T7 phage-mediated lysis assay; assay type: cell-based, Escherichia coli; details: read-out: T7 phage IC50
Text: D. Secondary Assay 2: Screening for Inhibitors of Bacterial Capsule Biogenesis—T7 Lysis Inhibition
Purpose: This secondary assay measures the compound mechanistic specificity for inhibition of bacterial capsule formation and excludes inhibitors of phage replication using a different bacteriophage (T7). In this assay, an increase in phage-induced lysis correlates to a decrease in capsule formation.
Purpose: This secondary assay measures the compound mechanistic specificity for inhibition of bacterial capsule formation using a different bacterial phage (T7). In this assay, an increase in phage-induced lysis correlates to a decrease in capsule formation.
Assay Description: T7 phage-mediated lysis assay: This assay determined if the mechanism of action of the compound is inhibition of phage infectivity or replication. The T7 phage has a nearly identical genome to K1F, without encoding an endosialidase. Its cycle of replication is similar to that of K1F as well. However, T7 entry into E. coli is inhibited by K capsules. This secondary assay was conducted in the 96 well plate format. […] Compounds were added in quadruplicate to plates in a concentration dependent manner in the range of 100-0.39 μM, followed by addition of 100 μL of bacterial culture. 1% DMSO (final well concentration) was included. The plates were tape sealed and shaken vigorously for 1.5 hr. An initial OD600 reading was measured to identify compounds that cause growth retardation or bacterial killing in the absence of phage. Next, T7 phage (5 μL) was added to all of the test wells. The plates were resealed and shaken vigorously at 37° C., and measurements of OD600 for phage-mediated lysis were taken after 3 hr. True inhibitors of capsule yielded bacteria that were susceptible to T7 phage and lysed within 2 hr of the addition of phage. […] The positive control drug C7 (100 μM final well concentration) was used in this screen.
T7 phage counter assay. This secondary assay was performed as previously described and was used to distinguish compounds with phage inhibitory effects from true polysaccharide capsule inhibitors. […] Thus, the presence of a capsule inhibits T7-mediated lysis. In this assay, an increase in phage-induced lysis correlates to a decrease in capsule formation. True inhibitors of capsule yielded bacteria that were susceptible to T7 phage and lysed within 2 hr of the addition of phage. […] The positive control molecule C7 (100 μM final well concentration) was used in this screen.

E. coli K1 strain UTI89 [3] = experiment: microbe, parasite or virus in culture
Text: The ability of the […] to bind to bacterial capsule, infect, and lyse E. coli UT189 was used as the primary assay to identify the effects of screened compounds on bacterial capsule formation. The phenotypic end-point assay measured the fluorescence generated by cellular processing of Alamar Blue as a direct indicator of cell viability. A total of […] compounds were screened using the primary assay. […] Hits were further evaluated using […] secondary assays for alternative measurement of compound-induced reduction in bacterial capsule formation (secondary assays 1 and 2) and specificity (secondary assays 3 and 4). Confirmed actives with an SI>5 were further investigated and subjected to chemical optimization, followed by secondary assay evaluation. Secondary assays more closely characterized the ability of the compounds to reduce bacterial capsule formation and can be used to examine the mechanism of action of the compounds. The combination of primary assay (to measure capsule reduction), counter assay (for general eukaryotic cell toxicity) and secondary assay (to measure reduction in capsule formation and specificity) were combined to allow a determination of probe efficacy, selectivity, and specificity.
A. Primary Assay: Screening for Inhibitors of Bacterial Capsule Biogenesis.
Primary assay: An end-point assay to measure the amount of K1 phage-induced bacterial cell lysis was employed to determine the compound effect on capsule biogenesis. K1 bacteriophage specifically binds the bacterial capsule during the initial stages of infection. Bacteria without capsule cannot be infected and lysed by the bacteriophage. […] A total of 338,740 compounds were screened at 100 μM in the primary screen Inhibition of phage lysis was calculated relative to the mean of the bacterial (positive) control on each microtiter plate. […] For calculation of S/B/Z value, and CV, the following formulae (in which SD stands for standard deviation) were used: S/B=mean signal/mean background; Z=1-3SD of sample+3SD of control mean of sample−mean of control; % CV=(SD mean signal/mean signal)×100.
IC50 values were calculated using a 4 parameter Levenburg-Marquardt algorithm, with the maximum and minimum locked at 0 and 100 respectively.
Primary assay: The primary assay was conducted in the 1,536 well plate format. Bacterial cultures of E. coli K1 strain UTI89 (cystitis isolate) and isogenic capsule mutant strains (as controls for phage infection) were grown and prepared at the screening center immediately prior to use. Overnight starting cultures of UTI89 were grown at 37° C., and inoculated into 1 liter of LB (starting OD600˜0.03), which was sufficient for screening 40 plates (including ˜10% waste) and ˜40,000 compounds as single points.
Control wells contained UTI89 (wt K1) with 0.5% DMSO as a simulated positive control; UTI89 with 0.5% DMSO and tetracycline for a negative growth control; and media plus vehicle control. 50 mL of LB Broth was inoculated with stock 150 μL E. coli UT189 and grown overnight at 37° C. The next day, cultures were diluted 1:75 in 1 L of LB Broth containing 0.5% DMSO. 3 μL of this culture was added to each plate well, and plates were incubated, inverted, at 37° C. for 2 hr. The K1F bacteriophage stock was diluted 1:8 in LB Broth containing 0.5% DMSO, and 1.5 μL of diluted phage (or media only) was added to the pre-plated test compound wells and appropriate control wells. The plates were centrifuged briefly, and then were incubated, inverted, at 37° C. for an additional 2 hr. Afterward, Alamar Blue reagent (Invitrogen, #DAL1100) was diluted 1:2 with LB broth and 1 μL was added to each plate well.

[4] = first round of synthetic analogues, n = 2
[5] = read-out: K1 phage IC50, first round of synthetic analogues, n = 3
[6] = second round of synthetic analogues, n = 2
[7] = read-out: K1 phage IC50, second round of synthetic analogues, n = 3

O=C(Nc1cc(-c2ccc(OC(F)(F)F)cc2)sc1C(=O)O)c1ccc(Br)o1 [compound 53495057]
IC50 [1]: 33.6 µM
IC50 (E. coli K1 strain UTI89 [2]; [4]): 1.17 µM
IC50 (E. coli K1 strain UTI89 [3]; [5]): 6.39 µM

O=C(O)c1sc(-c2ccc(OCC(F)(F)F)cc2)cc1NC(=O)c1c(F)cc(F)cc1F [compound 56643012]
IC50 [1]: 161 µM
IC50 (E. coli K1 strain UTI89 [2]; [6]): 2.5 to 5 µM
IC50 (E. coli K1 strain UTI89 [3]; [7]): 94.9 µM

COC(=O)c1sc(-c2ccccc2)cc1NC(C)=O [compound 4114774]
% Inhibition at 100 μM (E. coli K1 strain UTI89 [3]; HTS primary screen, 100 μM): 0.68%

Cc1ccc(-c2cc(NC(=O)c3cccc(F)c3)c(C(=O)O)s2)cc1 [compound 53470441]
IC50 [1]: 43.9 µM
IC50 (E. coli K1 strain UTI89 [2]; [4]): 7.21 µM
IC50 (E. coli K1 strain UTI89 [3]; [5]): 53.7 µM

O=C(O)c1sc(-c2ccc(OCCCC(F)(F)F)cc2)cc1NC(=O)c1c(F)cccc1F [compound 56643024]
IC50 [1]: 241 µM
IC50 (E. coli K1 strain UTI89 [2]; [6]): < 2.5 µM
IC50 (E. coli K1 strain UTI89 [3]; [7]): 10.3 µM

O=C(Nc1cc(-c2ccc(OCCC(F)(F)F)cc2)sc1C(=O)O)c1ccc(Br)o1 [compound 56643022]
IC50 [1]: 41.7 µM
IC50 (E. coli K1 strain UTI89 [2]; [6]): < 0.625 µM
IC50 (E. coli K1 strain UTI89 [3]; [7]): 0.84 µM

O=C(Nc1cc(-c2ccc(OCCC(F)(F)F)cc2)sc1C(=O)O)c1ccc(Br)o1 [CID 56643022]
IC50 [1]: 41.7 µM
IC50 (E. coli K1 strain UTI89 [2]; five probe analogues): < 0.625 µM
IC50 (E. coli K1 strain UTI89 [3]; read-out: K1 phage IC50, five probe analogues): 0.84 µM

O=C(Nc1cc(-c2ccc(OC(F)(F)F)cc2)sc1C(=O)O)c1cccc(F)c1 [compound 53495056]
IC50 [1]: 52.1 µM
IC50 (E. coli K1 strain UTI89 [2]; [4]): > 5 µM
IC50 (E. coli K1 strain UTI89 [3]; [5]): > 100 µM

CCCCOc1ccc(-c2cc(NC(=O)c3c(F)cccc3F)c(C(=O)O)s2)cc1 [compound 56643007]
IC50 [1]: 42.6 µM
IC50 (E. coli K1 strain UTI89 [2]; [6]): < 0.625 µM
IC50 (E. coli K1 strain UTI89 [3]; [7]): < 0.78 µM

O=C(O)c1sc(-c2ccc(OCC(F)(F)F)cc2)cc1NC(=O)c1c(F)cccc1F [CID 56643002]
IC50 (E. coli K1 strain UTI89 [3]; read-out: K1 phage IC50 (inhibition of K1 capsule formation)): 2.86 µM

COc1ccc(-c2cc(NC(=O)c3ccc(Br)o3)c(C(=O)O)s2)cc1 [compound 53470446]
IC50 [1]: 50.5 µM
IC50 (E. coli K1 strain UTI89 [2]; [4]): 1.24 µM
IC50 (E. coli K1 strain UTI89 [3]; [5]): 11.1 µM

CC(C)(C)c1ccc(-c2cc(NC(=O)c3cc4ccccc4o3)c(C(=O)O)s2)cc1 [compound 53470424]
IC50 [1]: 34.5 µM
IC50 (E. coli K1 strain UTI89 [2]; [4]): 2.83 µM
IC50 (E. coli K1 strain UTI89 [3]; [5]): > 100 µM

CCOc1ccc(-c2cc(NC(=O)c3cc4ccccc4o3)c(C(=O)O)s2)cc1 [compound 53470427]
IC50 [1]: 193 µM
IC50 (E. coli K1 strain UTI89 [2]; [4]): 2.75 µM
IC50 (E. coli K1 strain UTI89 [3]; [5]): > 100 µM

— US9688653B2, “Ethoxyphenyl thienyl compounds and methods for the treatment of bacterial infections” (Duke University, priority 2013, dated 2017)
